Columns and labels:
Assay type in all cases: cell-based
[1] = test system: Jurkat T-cell leukemic cells; test: Cell cycle assay, flow cytometry with propidium iodide, Example 126; details: 24 h, 0.5% serum, Table 2
Protocol: (§1) MCF-7 breast cancer cells and Jurkat T-cell leukemic cells were grown (and maintained) in EMEM and RPMI media, respectively, containing 10% fetal calf serum.
Test agents were added a concentration of 0.1 μM. Twenty-fours after test agent addition, cells were analyzed for cell cycle status as described below.
(§2) Cell cycle status was analyzed by flow cytometry. Briefly, cells were collected and washed with FACs buffer (Pharmingen) and resuspended and fixed in 1 mL of 80% ethanol for 1 hr. Cells were washed with FACs buffer and resuspended in propidium iodide(PI)/RNase staining buffer (Pharmingen). PI is a fluorescent dye that labels nucleic acids such as DNA. The fluorescence within a cell (in the presence of PI) is proportional to the amount of DNA within a cell. The cell content of DNA is an indices of status in the cell cycle. […] Cells in the S phase have DNA content that lies between these extremes.
(§3) For testing of cell cycle effects of test agents the percentage of cells within the G1 and G2/M phase were measured.

[2] = test system: MCF-7 breast cancer cells; test: as above; details: MCF-7 cells, 24 h, 0.5% FCS, Table 2
Protocol: as §1
Cells were allowed to adhere for 24 hrs. After adherence, cell culture media was changed to that containing 0.5% FCS. Thirty minutes post-media change, test compounds were added at a concentration of 1 μM. Twenty-fours after test agent addition, cells were analyzed for cell cycle status as described below.
as §2, §3

Hela cells = test: Cell viability assay (WST-1 colorimetric mitochondrial reduction), Example 125; details: Homo sapiens, 0.5% fetal calf serum, 48-72 hrs
Protocol: Jurkat and Hela cells were cultured in RPMI and EMEM media, respectively, containing 0.5% fetal calf serum. Cells were plated in a volume of 100 μL in a 96 well format. Test compounds were included in the culture media at concentrations ranging from 1 nM to 10 μM for a period of 48-72 hrs. […] Briefly, 10 μL of WST-1 reagent was included in the culture well for a period of 1 to 4 hrs. The WST-1 reaction was read on a multiwell spectrophotometer as the difference in the absorbance between 450 nm and 600 nm (baseline). Absorbance was proportional to the number of living cells in the culture well. Concentration response curves and IC50 values were calculated using GraphPAD Prism graphing and curve fitting program.

IC50 (Hela cells) | SMILES | Jurkat G2/M Block 0.1 μM [1] | MCF-7 G2/M Block 1 μM [2]
 | [O-][n+]1cccc(Nc2cc(O)cc(-c3cccc4[nH]ccc34)c2)c1 [3-(1H-Indol-4-yl)-5-(1-oxy-pyridin-3-ylamino)-phenol] | Y (Y indicates a 50% or greater increase in the number of cells in the G2/M phase, as compared to control) | Y (Y indicates a 50% or greater increase in the number of cells in the G2/M phase, as compared to control)
1 to 30 µM | CC(=O)N(c1cccnc1)c1cccc(-c2cccc3[nH]ccc23)c1 [N-[3-(1H-Indol-4-yl)-phenyl]-N-pyridin-3-yl-acetamide] |  | 

Reference: patent publication US7504401B2, “Anti-cancer agents and uses thereof” (Locus Pharmaceuticals, Inc., priority 2003, dated 2009)
